Results reported in PMC10747602, “Dose Response, Dosimetric, and Metabolic Evaluations of Replacement PFAS Perfluoro-(2,5,8-trimethyl-3,6,9-trioxadodecanoic) Acid (HFPO-TeA)” (Toxics, 2023).
Values joined by “and” are separate entries in the source; they are usually repeats but may differ in a detail not shown here. Identical values can stand only once.

Key:
Assay type in all cases: in vitro ADME
[1] = Ultracentrifugation plasma protein binding assay, human plasma; details: both sexes, human
Experimental: (§1) Information on the chemicals and materials used in the plasma protein binding work can be found in Supplementary Text S10 and Table S3. Human and rodent plasma were evaluated for plasma protein binding using ultracentrifugation, as previously described. Working solutions of 3 mM of HFPO-DA, HFPO-TA, and HFPO-TeA were prepared separately in ethanol, with each working solution containing 3 mM of testosterone (Sigma-Aldrich; ≥98% pure) as a reference compound for assay performance. An aliquot of each stock solution (13.3 µL) was added to separate 15 mL tubes with 3.987 mL of plasma for a final assay concentration of 10 µM. The plasma solutions were incubated at 37 °C and 125 rpm for 60 min. One-hour stability samples (T60 min) were drawn in triplicate and diluted in four volumes of plasma ultrafiltrate. Aliquots (1 mL) from each plasma solution were drawn in triplicate and transferred to polycarbonate tubing. These samples underwent ultracentrifugation (Beckman OptimaMax; Beckman Coulter Inc., Brea, CA, USA) at 850,000× g for 4 h at 37 °C.
(§2) The remaining plasma solutions were returned for incubation at 37 °C and 125 rpm for an additional 4 h. Five-hour stability samples (T300 min) were then drawn in triplicate and diluted in four volumes of plasma ultrafiltrate. After ultracentrifugation, the aqueous fraction (AF) was collected by transferring the supernatant to a new tube and diluting in an equal volume of plasma for matrix matching. All samples were combined with 3 volumes of ice-cold ACN containing 16 ng/mL of ^13C3-HFPO-DA and 16 ng/mL of ^13C-Testosterone (Cambridge Isotope Laboratories; 98% pure). Samples were vigorously mixed, stored for 10 min at −20 °C, and then centrifuged at 12,000× g for 10 min at 4 °C. Supernatants were collected then stored at −70 °C prior to analysis.
(§3) Fraction unbound (fu) in plasma (fup) and percent stability calculations are detailed in Supplementary Text S10. Hepatic clearance, the fu in blood (fub) (fu in plasma adjusted for blood:plasma partitioning), and renal clearance were used to derive the steady-state concentration (Css) of each compound that will be used for in vitro–in vivo extrapolation (IVIVE). Renal clearance was calculated using the glomerular filtration rate (a species-dependent constant) and the fub. The Css calculation is detailed in Supplementary Text S11.
(§4) The gradient is available in Table S11. […]
(§5) Chemical stability in plasma was assessed
(§6) (F) Percent Stability = T300minutesT60minutes∗100

[2] = system: Human plasma; assay: as above; details: for Experimental fup (average fraction unbound in plasma): 10 µM, ultracentrifugation; for Average Stability (T5hr/ T1hr) / Aqueous Fraction concentration / Fraction Unbound in plasma (fup) / Stability (T5hr/ T1hr) / Time 1 hr concentration / Time 5 hr concentration: 10000 nM; for Average Stability (T5hr/ T1hr): 37 °C; for Aqueous Fraction concentration: after ultracentrifugation; for Aqueous Fraction concentration / Fraction Unbound in plasma (fup) / Stability (T5hr/ T1hr) / Time 1 hr concentration / Time 5 hr concentration: replicates A-C
Experimental: as §1, §2, §3, §4, §5, §6

[3] = system: Sprague Dawley rodent plasma; assay: Ultracentrifugation plasma protein binding assay, rat plasma; details: rat plasma, 10000 nM
Experimental: as §1, §2, §3, §4, §5, §6

[4] = as above; details: both sexes, Sprague Dawley, rat, rat plasma, 10000 nM
Experimental: as §1, §2, §3, §4, §5, §6

C[C@]12CC[C@H]3[C@@H](CCC4=CC(=O)CC[C@@]43C)[C@@H]1CC[C@@H]2O [Testosterone]
fraction unbound at 4 h, 10 µM ([1]; plasma, 10 µM, ultracentrifugation, read-out: Experimental fup (average fraction unbound in plasma)): 0.048
fraction unbound at 4 h, 10 µM ([1]; pooled human plasma, 10000 nM, replicates A-C, read-out: Fraction Unbound in plasma (fup)): 0.0537
Experimental fup (average fraction unbound in plasma) [2]: 0.0417
Experimental fup (average fraction unbound in plasma) ([2]; listed as Tesosterone): 0.0359
Average Stability (T5hr/ T1hr) [2]: 1.1059 and 0.9812
Average Stability (T5hr/ T1hr) ([2]; listed as Tesosterone): 1.0002
Aqueous Fraction concentration [2]: 546.88 nM and 521.28 nM and 574.4 nM and 376.32 nM and 357.12 nM and 381.76 nM
Aqueous Fraction concentration ([2]; listed as Tesosterone): 293.12 nM and 277.12 nM and 292.16 nM
Fraction Unbound in plasma (fup) [2]: 0.0442 and 0.0462 and 0.0429 and 0.0406 and 0.0415
Stability (T5hr/ T1hr) [2]: 0.9564 and 1.2770 and 1.0843 and 0.9797 and 0.9599 and 1.0039
Time 1 hr concentration [2]: 10.6456 µM and 9.2344 µM and 11.4704 µM and 8.9504 µM and 9.1664 µM and 9.1736 µM
Time 5 hr concentration [2]: 10.1816 µM and 11.792 µM and 12.4368 µM and 8.7688 µM and 8.7984 µM and 9.2096 µM
Fraction Unbound in plasma (fup) ([2]; listed as Tesosterone): 0.0369 and 0.0320 and 0.0386
Stability (T5hr/ T1hr) ([2]; listed as Tesosterone): 0.9569 and 1.1423 and 0.9014
Time 1 hr concentration ([2]; listed as Tesosterone): 8.3008 µM and 7.576 µM and 8.3888 µM
Time 5 hr concentration ([2]; listed as Tesosterone): 7.9432 µM and 8.6544 µM and 7.5616 µM
Average Stability (T5hr/ T1hr) [3]: 1.0825 and 0.9487 and 1.0344
Aqueous Fraction, Rep A ([3]; Rep A): 659.2 nM and 463 nM and 481 nM
Fraction Unbound in plasma (fup), Rep A ([3]; Rep A): 0.05346 and 0.05095
Stability (T5hr/ T1hr), Rep A ([3]; Rep A): 1.0325 and 0.8708 and 1.0149
Time 1 hr concentration, Rep A ([3]; Rep A): 11.552 µM and 9.9536 µM and 9.3008 µM
Time 5 hr concentration, Rep A ([3]; Rep A): 11.928 µM and 8.6672 µM and 9.4392 µM
Aqueous Fraction, Rep B ([3]; Rep B): 678.4 nM and 491 nM and 472 nM
Fraction Unbound in plasma (fup), Rep B ([3]; Rep B): 0.0545
Stability (T5hr/ T1hr), Rep B ([3]; Rep B): 1.1304 and 0.9004
Time 1 hr concentration, Rep B ([3]; Rep B): 10.184 µM and 10.0112 µM and 8.783 µM
Time 5 hr concentration, Rep B ([3]; Rep B): 11.512 µM and 9.0136 µM
Aqueous Fraction, Rep C ([3]; Rep C): 681.6 nM and 481.28 nM and 439 nM
Fraction Unbound in plasma (fup), Rep C ([3]; Rep C): 0.04493 and 0.05209
Stability (T5hr/ T1hr), Rep C ([3]; Rep C): 1.0845 and 1.0750 and 1.0540
Time 1 hr concentration, Rep C ([3]; Rep C): 12.408 µM and 9.964 µM and 7.99 µM
Time 5 hr concentration, Rep C ([3]; Rep C): 13.456 µM and 10.7112 µM and 8.4216 µM
Average fup (fraction unbound in plasma) ([3]; ultracentrifugation): 0.0510 and 0.0515
fraction unbound at 4 h, 10 µM ([4]; Rep A, read-out: Fraction Unbound in plasma (fup), Rep A): 0.0553
fraction unbound at 4 h, 10 µM ([4]; Rep B, read-out: Fraction Unbound in plasma (fup), Rep B): 0.0589
fraction unbound at 4 h, 10 µM ([4]; Rep C, read-out: Fraction Unbound in plasma (fup), Rep C): 0.0507
fraction unbound at 4 h, 10 µM ([4]; ultracentrifugation, read-out: Average fup (fraction unbound in plasma)): 0.0549
